Measured values published in patent US7919487B2, “Heteroaryl compounds” (Synta Pharmaceuticals Corporation, priority 2004, dated 2011).

Tested on: IL-12 production in human PBMC or THP-1 cells
Test: Human in vitro assay: inhibition of IL-12 production in human PBMC or THP-1 cells (ELISA)
Type: cell-based
Settings: THP-1, human PBMC or THP-1 cells, IFNγ plus LPS or SAC stimulation, representative in vitro data
Description: The biological activities of the compounds of the invention can be evaluated by a number of cell-based assays. One of such assays can be conducted using cells from human peripheral blood mononuclear cells (PBMC) or human monocytic cell line (THP-1). The cells are stimulated with a combination of human interferon-γ (IFNγ) and lipopolysaccharide or a combination of IFNγ and Staphylococcus aureus Cowan I in the presence of a test compound. The level of inhibition of IL-12 production can be measured by determining the amount of p70 by using a sandwich ELISA assay with anti-human IL-12 antibodies. IC50 of the test compound can then be determined. Specifically, PBMC or THP-1 cells are incubated with the test compound. Cell viability was assessed using the bioreduction of MTS [3-(4,5-dimethylthiazol-2-yl)-5-(3-carboxymethoxyphenyl)-2-(4-sulfophenyl)-2H-tetrazolium] (Promega, Madison, Wis.).
Reagents. Staphylococcus aureus Cowan I (SAC) was obtained from Calbiochem (La Jolla, Calif.), and lipopolysaccharide (LPS, Serratia marscencens) was obtained from Sigma (St Louis, Mo.). Human and mouse recombinant IFNγ were purchased from Boehringer Mannheim (Mannheim, Germany) and Pharmingen (San Diego, Calif.), respectively.
Human In Vitro Assay. Human PBMC were isolated by centrifugation using Ficoll-Paque (Pharmacia Biotech, Uppsala, Sweden) and prepared in RPMI medium supplemented with 10% fetal calf serum (FCS), 100 U/mL penicillin, and 100 μg/mL streptomycin. PBMC were plated in wells of a 96-well plate at a concentration of 5×10^5 cells/well, and primed by adding IFNγ (30 U/mL) for 22 h and stimulated by adding LPS (1 μg/mL), or by adding IFNγ (100 U/mL) and then stimulated by adding SAC (0.01%). A test pyrimidine compound was dissolved in DMSO, and added to wells of the 96-well plate. The final DMSO concentration was adjusted to 0.25% in all cultures, including the compound-free control. Human THP-1 cells were plated in wells, primed by adding IFNγ (100 U/mL) for 22 h and stimulated by adding SAC (0.025%) in the presence of different concentrations of the pyrimidine compound. Cell-free supernatants were taken 18 h later for measurement of cytokines. Cell viability was assessed using the bioreduction of MTS. Cell survival was estimated by determining the ratio of the absorbance in compound-treated groups versus compound-free control.
The supernatant was assayed for the amount of IL-12p40, IL-12p70, or IL-10 by using a sandwich ELISA with anti-human antibodies, i.e., a Human IL-12 p40 ELISA kit from R&D Systems (Berkeley, Calif.), and a Human IL-12 p70 or IL-10 ELISA kit from Endogen (Cambridge, Mass.). Assays were based on the manufacturer's instructions.
The biological activities of compounds were tested on human PBMC or THP-1 cells.

| SMILES | IC50 [nM] |
| --- | --- |
| CSc1nc(NC(=O)Nc2cccc(C)c2)nc(-c2cccnc2)n1 [Compound 145, 1-(4-(methylthio)-6-(pyridin-3-yl)-1,3,5-triazin-2-yl)-3-m-tolylurea] | > 1000 |
| Cc1[nH]c2ccc(NC(=O)c3cc(NCCN4CCOCC4)nc(N(C)C)n3)cc2c1C [Compound 147, N-(2,3-dimethyl-1H-indol-5-yl)-2-(dimethylamino)-6-(2-morpholinoethylamino)pyrimidine-4-carboxamide] | > 1000 |
| Cc1[nH]c2ccc(NC(=O)c3cc(NCCN4CCOCC4)nc(N4CCSC4)n3)cc2c1C [Compound 148, N-(2,3-dimethyl-1H-indol-5-yl)-6-(2-morpholinoethylamino)-2-(thiazolidin-3-yl)pyrimidine-4-carboxamide] | 55 |
